The results in this text go back to PubChem BioAssay (NCI).

Some test systems named below: HS 578T breast; SF-268 CNS; LOX IMVI melanoma; SR leukemia; MCF7 breast; COLO 205 colon; SN12C renal; PC-3 prostate; NCI-H522 lung; UACC-257 melanoma; MALME-3M melanoma; OVCAR-3 ovarian; IGROV1 ovarian; MDA-MB-231 breast; M14 melanoma; RXF 393 renal.
Test in all cases: NCI tumour cell line growth inhibition, 48 h

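Growth conditions: 96-well plates. Treatment: test compound, 48 hours, 5 concentrations. Analysis: linear interpolation between bracketing concentrations; unreached endpoints set to highest concentration. Definition used: TGI = concentration required for complete inhibition of growth.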 Bounds are passed on as bounds.

As for `O=C(/C=C/c1ccc(O)c(O)c1O)OCCc1ccccc1`, the TGI was > 100 µM in the experiment on HS 578T breast; > 100 µM in the experiment with SF-268 CNS; 53.5 µM in the experiment with LOX IMVI melanoma; 40.6 µM with SR leukemia; 32.2 µM in the experiment with MCF7 breast; 64.5 µM in the experiment with COLO 205 colon. Also, the TGI is 34.4 µM with SN12C renal; > 100 µM in the experiment on PC-3 prostate; 54.9 µM in the experiment with NCI-H522 lung; > 100 µM in the experiment on UACC-257 melanoma; > 100 µM in the experiment on MALME-3M melanoma; 46.5 µM in the experiment on OVCAR-3 ovarian. Further, the TGI in the experiment with IGROV1 ovarian came out at 84.5 µM; with MDA-MB-231 breast it was 47.3 µM; in the experiment with M14 melanoma it was 37.9 µM; with RXF 393 renal, 98.2 µM.

With `COc1ccc(C(=O)/C=C/c2ccc(OCC(=O)N3CCN(c4ccccc4)CC3)cc2)cc1`, the TGI in the experiment on HS 578T breast is > 76.5 µM; in the experiment with SF-268 CNS it was > 100 µM; with LOX IMVI melanoma, > 100 µM; with SR leukemia it was > 60.4 µM; in the experiment with MCF7 breast, > 100 µM; in the experiment with COLO 205 colon, > 75.2 µM. Further, the TGI in the experiment with SN12C renal is > 100 µM; in the experiment on PC-3 prostate, > 100 µM; in the experiment with NCI-H522 lung, > 45.8 µM; in the experiment on UACC-257 melanoma, > 100 µM; in the experiment on MALME-3M melanoma it was > 100 µM; with OVCAR-3 ovarian it was > 100 µM. The TGI in the experiment with IGROV1 ovarian is > 65.8 µM; in the experiment on MDA-MB-231 breast it was > 53.2 µM; with M14 melanoma it was > 100 µM; in the experiment on RXF 393 renal, 74 µM.

As for `CCOC(=O)/C=C(/C(=O)OCC)n1ccc(=O)n(/C(=C/C(=O)OCC)C(=O)OCC)c1=O`, the TGI in the experiment with HS 578T breast is 45.5 µM; in the experiment with SF-268 CNS, 43.9 µM; with LOX IMVI melanoma, 10.5 µM; in the experiment on SR leukemia, 13.5 µM; with MCF7 breast, 19.9 µM; with COLO 205 colon it was 3.79 µM. Also, the TGI was determined as 17.9 µM in the experiment with SN12C renal; 29 µM in the experiment with PC-3 prostate; 3.53 µM with NCI-H522 lung; 24.5 µM in the experiment with UACC-257 melanoma; 8.15 µM in the experiment with MALME-3M melanoma; 16.9 µM in the experiment on OVCAR-3 ovarian. Also, the TGI in the experiment on IGROV1 ovarian was determined as 31.4 µM; in the experiment with MDA-MB-231 breast it was 31.9 µM; in the experiment on M14 melanoma it was 10.6 µM; in the experiment on RXF 393 renal it was 9.62 µM.

Take `COc1cc(N(CCC#N)CCC#N)ccc1/C(N=Nc1ccccc1)=N/NC(=O)c1cc(Br)ccc1O`: the TGI is > 100 µM in the experiment with HS 578T breast; > 100 µM with SF-268 CNS; 65.1 µM in the experiment on LOX IMVI melanoma; 43.7 µM in the experiment on SR leukemia; 55.5 µM in the experiment with MCF7 breast; 29.8 µM in the experiment on COLO 205 colon. In addition, the TGI in the experiment with SN12C renal was 96.6 µM; in the experiment with PC-3 prostate it was > 100 µM; in the experiment on NCI-H522 lung, 67.9 µM; in the experiment with UACC-257 melanoma it was 62.8 µM; with MALME-3M melanoma, > 100 µM; in the experiment with OVCAR-3 ovarian, 83.5 µM. In addition, the TGI in the experiment with IGROV1 ovarian was 35 µM; in the experiment with MDA-MB-231 breast, 62.6 µM; in the experiment on M14 melanoma it was > 100 µM; with RXF 393 renal, 70.9 µM.

Consider `Cc1cc(NS(=O)(=O)c2ccc(Nc3c4ccccc4nc4ccc(C(=O)Nc5ccc(S(N)(=O)=O)cc5)cc34)cc2)no1`, for which the TGI with HS 578T breast, in the experiment with SF-268 CNS, in the experiment with LOX IMVI melanoma, in the experiment with SR leukemia, in the experiment on MCF7 breast and in the experiment on COLO 205 colon was > 100 µM each time. The TGI with SN12C renal, in the experiment with PC-3 prostate, in the experiment on NCI-H522 lung, in the experiment with UACC-257 melanoma, in the experiment with MALME-3M melanoma and in the experiment on OVCAR-3 ovarian was > 100 µM each time. The TGI in the experiment with IGROV1 ovarian, with MDA-MB-231 breast, in the experiment with M14 melanoma and with RXF 393 renal was > 100 µM throughout.

In the case of `NC(=Nc1ccc(O)cc1)S(=O)O`, the TGI in the experiment on HS 578T breast, with SF-268 CNS, in the experiment on LOX IMVI melanoma, in the experiment with SR leukemia, in the experiment with MCF7 breast and in the experiment with COLO 205 colon was > 100 µM in each case. Further, the TGI in the experiment on SN12C renal, in the experiment on PC-3 prostate, in the experiment on NCI-H522 lung, in the experiment with UACC-257 melanoma, with MALME-3M melanoma and in the experiment with OVCAR-3 ovarian was > 100 µM each time. Besides, the TGI in the experiment with IGROV1 ovarian, with MDA-MB-231 breast, with M14 melanoma and in the experiment on RXF 393 renal was > 100 µM throughout.

For `O=C(NC(Nc1ccc(F)c(Cl)c1)(C(F)(F)F)C(F)(F)F)OCc1ccccc1`, the TGI was > 100 µM with HS 578T breast; > 100 µM in the experiment on SF-268 CNS; > 100 µM in the experiment on LOX IMVI melanoma; 32.7 µM with SR leukemia; 38.1 µM in the experiment with MCF7 breast; 35.1 µM with COLO 205 colon. Further, the TGI with SN12C renal was > 100 µM; with PC-3 prostate it was > 100 µM; in the experiment on NCI-H522 lung it was 42.1 µM; in the experiment on UACC-257 melanoma, > 100 µM; in the experiment with MALME-3M melanoma, > 100 µM; in the experiment on OVCAR-3 ovarian, 34.8 µM. Further, the TGI was > 100 µM in the experiment with IGROV1 ovarian, 33.5 µM in the experiment on MDA-MB-231 breast, > 100 µM in the experiment with M14 melanoma and > 100 µM in the experiment with RXF 393 renal.

Take `COC(=O)[C@@H]1C[C@H]([Se]c2ccccc2)CN1C(=O)OCc1ccccc1`: the TGI was > 100 µM in the experiment with HS 578T breast; > 100 µM with SF-268 CNS; 26.5 µM with LOX IMVI melanoma; > 100 µM in the experiment on SR leukemia; 41.5 µM with MCF7 breast; 54.5 µM in the experiment on COLO 205 colon. For the same compound, the TGI in the experiment on SN12C renal was > 100 µM; in the experiment with PC-3 prostate, > 100 µM; in the experiment on NCI-H522 lung, > 100 µM; in the experiment on UACC-257 melanoma it was > 100 µM; with MALME-3M melanoma, 77.2 µM; in the experiment with OVCAR-3 ovarian it was 67.1 µM. Further, the TGI in the experiment on IGROV1 ovarian is > 100 µM; in the experiment on MDA-MB-231 breast, > 100 µM; with M14 melanoma, > 100 µM; in the experiment on RXF 393 renal, 84.3 µM.

With `O=C1NC(N2CCCC(CO)C2)=N/C1=C\c1ccc(Cl)cc1` (centres undefined), the TGI in the experiment on HS 578T breast, in the experiment on SF-268 CNS, in the experiment with LOX IMVI melanoma, in the experiment on SR leukemia, with MCF7 breast and in the experiment on COLO 205 colon was > 100 µM in each case. The TGI in the experiment with SN12C renal, in the experiment with PC-3 prostate, with NCI-H522 lung, in the experiment with UACC-257 melanoma, in the experiment with MALME-3M melanoma and with OVCAR-3 ovarian was > 100 µM throughout. Moreover, the TGI with IGROV1 ovarian, with MDA-MB-231 breast, in the experiment with M14 melanoma and with RXF 393 renal was > 100 µM each time.
